{"source": "patent US9970938B2", "about": "“Use of BUBR1 as a biomarker of drug response to furazanobenzimidazoles” (Basilea Pharmaceutica AG, priority 2011, dated 2018)", "test_system": "HeLa cells", "assay": "YO-PRO assay of siRNA-treated cells", "format": "cell-based, human", "conditions": "BUBR1 siRNA pool, 48 hours treatment", "protocol": "For siRNA experiments to assess effects on BUBR1 expression levels by immunoblotting and effects on tumour cell proliferation and viability using the YO-PRO assay (FIGS. 7, 9,10 and 11), and Crystal Violet Assay (FIGS. 12 and 13), cells were seeded in 6 well plates at an appropriate density: HeLa (cervical cancer cells; ATCC reference CCL-2) 2.5E+04 (for YO-PRO) or 4.0E+04 (for Crystal Violet) cells per well, H460 (NSCLC cells; ATCC reference HTB-177) 5.0E+04 cells per well, MCF-7 (breast carcinoma cells; ATCC reference HTB-22) 2.4E+05 cells per well, Panc1 (pancreatic cancer cells, ATCC reference CRL-1469) and HCT116 (colon cancer cells, ATCC reference CCI-247) 8E+04 cells per well, and were cultured at 37° C. and 5% CO2 in RPMI-1640 or DMEM containing 10% FCS (complete medium). […]\n12.5 μl YO-PRO®-1 iodide (491/509)(Invitrogen/Molecular Probes, # Y-3603; 1 mM in DMSO) were added to 1 ml 5-times concentrated YO-PRO buffer (100 mM Na-citrate, pH 4.0; 134 mM NaCl) to produce the YO-PRO Mix. […] The uptake of YO-PRO dye into cells was assessed by using a SpectraMax M2^e plate reader (Molecular Devices) using 485 nm excitation and 538 nm emission at a cutoff of 530 nm. […] Fluorescent read-out was performed in a SpectraMax M2^e plate reader (Molecular Devices) using 485 nm excitation and 538 nm emission at a cut off of 530 nm. […]", "data": [{"smiles": "N#CCCNc1nonc1-c1nc2ccccc2n1CC(=O)c1ccc(N)cc1", "note": "[BAL27862, 3-(4-{1-[2-(4-Amino-phenyl)-2-oxo-ethyl]-1H-benzoimidazol-2-yl}-furazan-3-ylamino)-propionitrile]", "values": [{"measurement": "antiproliferative effect with reduced BUBR1 expression", "value": "dramatically reduced"}, {"measurement": "tumour cell death with reduced BUBR1 expression", "value": "no increase in tumour cell death observed"}]}]}
